The values that follow come from doi:10.1101/641969v1 (biorxiv, 2019).

Structures are written as SMILES.

One assay concerns the target T1, PmCntL (Paenibacillus mucilaginosus, UniProt H6NF62).
T1 sequence (H6NF62 1-276): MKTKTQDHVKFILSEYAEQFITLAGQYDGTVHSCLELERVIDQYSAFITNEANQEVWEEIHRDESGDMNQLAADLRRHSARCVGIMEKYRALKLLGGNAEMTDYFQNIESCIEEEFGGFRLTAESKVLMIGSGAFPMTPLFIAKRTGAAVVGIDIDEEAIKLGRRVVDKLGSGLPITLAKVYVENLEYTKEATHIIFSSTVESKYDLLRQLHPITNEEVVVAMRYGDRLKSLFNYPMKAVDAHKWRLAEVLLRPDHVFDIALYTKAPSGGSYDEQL
Put plainly: TLC of products from carboxyl-[…]-labeled SAM. The assay is classed as biochemical. Particulars: 10 µM D-histidine, 2.5 µM [14C]SAM, pH 9, 28 °C, 30 min.

For a further assay, the target named is T2, PmCntM (Paenibacillus mucilaginosus, UniProt H6NF63).
T2 sequence (H6NF63 1-440): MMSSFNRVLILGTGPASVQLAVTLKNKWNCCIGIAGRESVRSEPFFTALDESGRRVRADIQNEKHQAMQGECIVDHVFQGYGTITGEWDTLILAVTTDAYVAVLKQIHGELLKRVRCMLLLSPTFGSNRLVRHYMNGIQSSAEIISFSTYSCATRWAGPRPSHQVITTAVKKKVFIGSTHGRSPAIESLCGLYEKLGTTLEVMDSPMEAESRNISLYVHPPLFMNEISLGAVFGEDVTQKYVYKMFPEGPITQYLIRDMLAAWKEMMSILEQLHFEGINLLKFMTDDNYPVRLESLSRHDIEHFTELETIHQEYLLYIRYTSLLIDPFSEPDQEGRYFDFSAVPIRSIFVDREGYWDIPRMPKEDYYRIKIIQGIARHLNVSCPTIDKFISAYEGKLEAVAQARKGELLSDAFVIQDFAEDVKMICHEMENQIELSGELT
Put plainly: NADPH oxidation at […] nm, initial rates. The assay is classed as biochemical.

The target of assay [1] is T3, SaCntM (Staphylococcus aureus, UniProt A0A0H3JT80).
T3 sequence (A0A0H3JT80 1-433): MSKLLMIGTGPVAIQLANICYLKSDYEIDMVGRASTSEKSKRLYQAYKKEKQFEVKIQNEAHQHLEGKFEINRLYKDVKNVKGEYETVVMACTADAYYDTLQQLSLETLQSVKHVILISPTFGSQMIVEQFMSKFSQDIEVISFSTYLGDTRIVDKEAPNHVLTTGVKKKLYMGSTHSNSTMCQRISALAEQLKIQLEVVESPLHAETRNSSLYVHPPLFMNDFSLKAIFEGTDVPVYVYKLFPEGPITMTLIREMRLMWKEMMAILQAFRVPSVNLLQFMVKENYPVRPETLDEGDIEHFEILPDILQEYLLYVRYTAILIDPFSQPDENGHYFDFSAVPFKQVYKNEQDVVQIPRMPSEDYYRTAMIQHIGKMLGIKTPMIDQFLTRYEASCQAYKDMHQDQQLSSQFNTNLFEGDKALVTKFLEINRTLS
Put plainly: NADPH oxidation at […] nm, initial rates, Michaelis-Menten fit. Format: biochemical. Conditions: 0.2 mM NADPH, 1 mM pyruvate, pH 7, 28 °C.

The target in assay [2] is T4, PaCntM (Pseudomonas aeruginosa, UniProt Q9HUX5).
T4 sequence (Q9HUX5 1-433): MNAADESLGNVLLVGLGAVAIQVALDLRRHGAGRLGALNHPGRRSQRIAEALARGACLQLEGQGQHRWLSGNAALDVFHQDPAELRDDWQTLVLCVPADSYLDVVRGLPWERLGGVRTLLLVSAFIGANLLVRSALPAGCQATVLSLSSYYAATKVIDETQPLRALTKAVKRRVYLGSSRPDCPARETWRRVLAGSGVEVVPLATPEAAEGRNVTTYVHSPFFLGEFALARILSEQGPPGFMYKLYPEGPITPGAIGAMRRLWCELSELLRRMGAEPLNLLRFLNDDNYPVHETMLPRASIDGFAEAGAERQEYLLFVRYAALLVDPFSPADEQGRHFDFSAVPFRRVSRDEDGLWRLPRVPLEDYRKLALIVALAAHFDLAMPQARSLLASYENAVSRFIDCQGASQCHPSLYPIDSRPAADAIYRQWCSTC
Put plainly: NADH oxidation at […] nm, initial rates, Michaelis-Menten fit. Conditions: 0.2 mM NADH, 1 mM α-ketoglutarate, pH 8, 28 °C.

The target in assay [3] is T3, SaCntM. Put plainly: NADPH oxidation at […] nm, initial rates, substrate inhibition model. Format: biochemical. Conditions: 0.2 mM NADPH, 1 mM pyruvate, pH 7, 28 °C.
In assay [4] the target is T4, PaCntM. Put plainly: NADH oxidation at […] nm, initial rates, substrate inhibition model. Conditions: 0.2 mM NADH, 1 mM α-ketoglutarate, pH 8, 28 °C. Format: biochemical.
Assay [5] concerns the target T3, SaCntM. Put plainly: NADPH oxidation at […] nm, initial rates, substrate inhibition model. The assay is classed as biochemical. Particulars: 0.2 mM NADPH, 1 mM pyruvate, pH 7, 28 °C. This is another data set of the same source.
Assay [6] has as its target T4, PaCntM. Put plainly: NADH oxidation at […] nm, initial rates, substrate inhibition model. The assay is classed as biochemical. Particulars: 0.2 mM NADH, 1 mM α-ketoglutarate, pH 8, 28 °C. The source holds these as a separate data set.

Consider `N[C@H](Cc1c[nH]cn1)C(=O)O` [D-histidine], for which, at PmCntL, the “TLC of products from carboxyl-[14C]-labeled SAM” value is “PmCntL uses D-His and not L-His”.
As usually defined, the Km is the concentration of substrate that gives half-maximal velocity. Consider `N[C@@H](CCN[C@H](Cc1c[nH]cn1)C(=O)O)C(=O)O` [xNA], for which the Km on PmCntM turned out to be 12 ± 1 µM; at SaCntM [1] it was 23 ± 3 µM; at PaCntM [2] it was 54 ± 20 µM.
For the compound `N[C@@H](CCN[C@@H](Cc1c[nH]cn1)C(=O)O)C(=O)O` [yNA], the Michaelis-Menten constant (Km) at PmCntM amounted to 7 ± 1 µM; on SaCntM [5] it was 47 ± 9 µM; at PaCntM [6], 21 ± 7 µM. Further, the Ki at SaCntM [3] was found to be 2300 ± 800 µM; on PaCntM [4], 2400 ± 1000 µM.
